Measurements published in the NIST ThermoML archive (doi:10.1016/j.fluid.2018.05.011).
± gives the expanded uncertainty stated by the source.

Settings: Liquid; Resistive pulse heating

| Critical pressure [kPa] | Critical temperature [K] | SMILES |
| --- | --- | --- |
| 1820 ± 70 | 868 ± 13 | OCCOCCOCCOCCOCCOCCO [3,6,9,12,15-pentaoxaheptadecane-1,17-diol] |
| 3570 ± 140 | 788 ± 12 | OCCOCCOCCO [triethylene glycol] |
| 2130 ± 90 | 842 ± 13 | OCCOCCOCCOCCOCCO [3,6,9,12-tetraoxatetradecane-1,14-diol] |

| SMILES | Critical pressure [kPa] | Critical temperature [K] |
| --- | --- | --- |
| OCCOCCO [diethylene glycol] | 4830 ± 190 | 753 ± 11 |
